This is an account of results in patent publication US10800791B2, “Triazole ACC inhibitors and uses thereof” (Gilead Apollo, LLC, priority 2015, dated 2020).

The target in experiment [1] is human (hACC2) (Homo sapiens, UniProt O00763). In words: In vitro ACC inhibition assay (ADP-Glo), hACC2. The experiment is classed as biochemical. The conditions noted are these: 5 nM ACC2, 20 μM ATP, 20 μM acetyl-CoA. The protocol: The detailed procedure is as follows. […] 10 μL ADP glo reagent was added. […] 20 μL kinase detection reagent was added.
In general terms: ADP-Glo turns the ADP formed in a reaction into a luminescent signal.

Experiment [2] concerns C. albicans. Description: Antifungal Activity Assay (broth microtiter MIC), C. albicans. The class given is cell-based, Candida albicans. The conditions noted are these: Candida albicans, ATCC90028, 48 h. The method, boiled down: (§1)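 Susceptibility was determined by CLSI M27-A3 broth microdilution in RPMI 1640 buffered with MOPS. Growth inhibition was scored visually after 48 h.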

The subject of experiment [3] is C. krusei. In words: Antifungal Activity Assay (broth microtiter MIC), C. krusei. The experiment is classed as cell-based, Candida krusei. To be noted: Pichia kudriavzevii, ATCC6258, 48 h. Summed up:
as §1

For experiment [4], the system named is C. parapsilosis. In words: Antifungal Activity Assay (broth microtiter MIC), C. parapsilosis. The experiment is classed as cell-based, Candida parapsilosis. The conditions noted are these: Lodderomyces parapsilosis, ATCC22019, 48 h. Summed up:
as §1

In experiment [5] the target is fungal (fACC2) (UniProt Q00955). To be noted: read-out: fACC2 (in vitro ACC2 Inhibition Assay, IC50), ADP-Glo, 5 nM ACC2, 20 μM ATP, 20 μM acetyl-CoA.
[6] abbreviates: Table 3b (additional results), ATCC 90028, 3 replicates, MIC recorded at 48 h, read-out: MIC, C. albicans ATCC 90028.
Where [7] appears, read: Table 3b (additional results), ATCC 6258, 3 replicates, MIC recorded at 48 h, read-out: MIC, C. krusei ATCC 6258.
Setting [8] is: Table 3b (additional results), ATCC 22019, 3 replicates, MIC recorded at 48 h, read-out: MIC, C. parapsilosis ATCC 22019.
The mark [9] stands for this setting: read-out: MIC, C. albicans ATCC 90028, Table 3b (additional results), 3 replicates, MIC recorded at 48 h.
Setting [10] is: read-out: MIC, C. krusei ATCC 6258, Table 3b (additional results), 3 replicates, MIC recorded at 48 h.
[11] abbreviates: read-out: MIC, C. parapsilosis ATCC 22019, Table 3b (additional results), 3 replicates, MIC recorded at 48 h.

pIC50: −log10 of the molar value. ≈ marks a conversion by molar mass, not a printed value. Like-named read-outs stand apart in the source and are kept apart here.

fungal (fACC2), sequence (Q00955 whole entry): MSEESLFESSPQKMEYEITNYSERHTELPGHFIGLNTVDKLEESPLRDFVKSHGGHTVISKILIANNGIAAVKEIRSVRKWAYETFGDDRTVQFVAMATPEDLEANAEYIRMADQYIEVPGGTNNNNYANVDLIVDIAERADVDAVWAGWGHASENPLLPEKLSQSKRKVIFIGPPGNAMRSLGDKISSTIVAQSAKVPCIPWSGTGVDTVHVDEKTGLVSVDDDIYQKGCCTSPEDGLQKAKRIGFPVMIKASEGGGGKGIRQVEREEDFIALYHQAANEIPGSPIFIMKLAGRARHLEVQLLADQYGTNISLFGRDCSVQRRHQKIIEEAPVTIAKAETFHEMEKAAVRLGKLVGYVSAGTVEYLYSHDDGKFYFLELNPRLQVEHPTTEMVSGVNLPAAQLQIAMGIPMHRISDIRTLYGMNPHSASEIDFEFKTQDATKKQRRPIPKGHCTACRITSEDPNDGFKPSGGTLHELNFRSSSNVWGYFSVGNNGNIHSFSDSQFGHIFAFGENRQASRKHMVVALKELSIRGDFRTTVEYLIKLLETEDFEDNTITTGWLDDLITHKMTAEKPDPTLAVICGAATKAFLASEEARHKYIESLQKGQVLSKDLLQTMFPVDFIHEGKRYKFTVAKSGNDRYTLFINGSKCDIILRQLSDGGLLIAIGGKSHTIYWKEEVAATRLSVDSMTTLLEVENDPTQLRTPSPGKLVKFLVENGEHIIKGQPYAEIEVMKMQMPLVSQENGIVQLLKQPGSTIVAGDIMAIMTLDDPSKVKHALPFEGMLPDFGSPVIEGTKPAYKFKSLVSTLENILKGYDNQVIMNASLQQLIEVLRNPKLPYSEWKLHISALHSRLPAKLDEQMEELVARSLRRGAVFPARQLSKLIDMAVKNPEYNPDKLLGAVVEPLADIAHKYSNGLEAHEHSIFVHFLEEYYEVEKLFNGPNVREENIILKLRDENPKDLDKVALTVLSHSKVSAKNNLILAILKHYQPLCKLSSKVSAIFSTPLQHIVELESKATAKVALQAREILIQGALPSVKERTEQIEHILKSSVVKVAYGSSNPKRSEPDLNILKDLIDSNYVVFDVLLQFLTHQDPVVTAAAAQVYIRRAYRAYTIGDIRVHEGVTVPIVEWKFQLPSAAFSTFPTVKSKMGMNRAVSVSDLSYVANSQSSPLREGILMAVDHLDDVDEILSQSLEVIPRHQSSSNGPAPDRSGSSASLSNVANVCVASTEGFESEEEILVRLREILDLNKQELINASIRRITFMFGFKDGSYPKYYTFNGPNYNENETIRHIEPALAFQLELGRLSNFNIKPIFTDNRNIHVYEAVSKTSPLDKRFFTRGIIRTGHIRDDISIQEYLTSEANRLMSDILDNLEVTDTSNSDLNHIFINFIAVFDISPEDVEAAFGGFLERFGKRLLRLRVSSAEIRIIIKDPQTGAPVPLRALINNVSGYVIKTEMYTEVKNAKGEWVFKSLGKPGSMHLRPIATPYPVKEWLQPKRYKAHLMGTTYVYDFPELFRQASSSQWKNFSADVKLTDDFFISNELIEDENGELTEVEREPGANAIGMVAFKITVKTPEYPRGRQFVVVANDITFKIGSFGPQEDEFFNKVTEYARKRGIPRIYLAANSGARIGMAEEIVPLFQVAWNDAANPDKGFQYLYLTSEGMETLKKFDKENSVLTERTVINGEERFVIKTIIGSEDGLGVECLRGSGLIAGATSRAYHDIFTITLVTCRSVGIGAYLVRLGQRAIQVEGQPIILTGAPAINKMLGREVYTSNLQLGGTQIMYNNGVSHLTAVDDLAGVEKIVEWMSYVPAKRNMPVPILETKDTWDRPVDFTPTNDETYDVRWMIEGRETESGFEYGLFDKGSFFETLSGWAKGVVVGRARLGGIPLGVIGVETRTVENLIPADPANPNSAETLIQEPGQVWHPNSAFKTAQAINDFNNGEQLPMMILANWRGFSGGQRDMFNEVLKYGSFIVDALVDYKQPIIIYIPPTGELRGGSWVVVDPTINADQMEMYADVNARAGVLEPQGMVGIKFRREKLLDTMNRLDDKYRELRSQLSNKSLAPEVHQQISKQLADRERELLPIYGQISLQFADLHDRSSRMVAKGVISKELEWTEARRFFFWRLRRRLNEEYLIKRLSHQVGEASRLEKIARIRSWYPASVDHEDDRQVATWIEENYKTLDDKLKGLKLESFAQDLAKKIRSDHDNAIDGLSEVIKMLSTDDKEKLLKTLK
human (hACC2), sequence (O00763 whole entry): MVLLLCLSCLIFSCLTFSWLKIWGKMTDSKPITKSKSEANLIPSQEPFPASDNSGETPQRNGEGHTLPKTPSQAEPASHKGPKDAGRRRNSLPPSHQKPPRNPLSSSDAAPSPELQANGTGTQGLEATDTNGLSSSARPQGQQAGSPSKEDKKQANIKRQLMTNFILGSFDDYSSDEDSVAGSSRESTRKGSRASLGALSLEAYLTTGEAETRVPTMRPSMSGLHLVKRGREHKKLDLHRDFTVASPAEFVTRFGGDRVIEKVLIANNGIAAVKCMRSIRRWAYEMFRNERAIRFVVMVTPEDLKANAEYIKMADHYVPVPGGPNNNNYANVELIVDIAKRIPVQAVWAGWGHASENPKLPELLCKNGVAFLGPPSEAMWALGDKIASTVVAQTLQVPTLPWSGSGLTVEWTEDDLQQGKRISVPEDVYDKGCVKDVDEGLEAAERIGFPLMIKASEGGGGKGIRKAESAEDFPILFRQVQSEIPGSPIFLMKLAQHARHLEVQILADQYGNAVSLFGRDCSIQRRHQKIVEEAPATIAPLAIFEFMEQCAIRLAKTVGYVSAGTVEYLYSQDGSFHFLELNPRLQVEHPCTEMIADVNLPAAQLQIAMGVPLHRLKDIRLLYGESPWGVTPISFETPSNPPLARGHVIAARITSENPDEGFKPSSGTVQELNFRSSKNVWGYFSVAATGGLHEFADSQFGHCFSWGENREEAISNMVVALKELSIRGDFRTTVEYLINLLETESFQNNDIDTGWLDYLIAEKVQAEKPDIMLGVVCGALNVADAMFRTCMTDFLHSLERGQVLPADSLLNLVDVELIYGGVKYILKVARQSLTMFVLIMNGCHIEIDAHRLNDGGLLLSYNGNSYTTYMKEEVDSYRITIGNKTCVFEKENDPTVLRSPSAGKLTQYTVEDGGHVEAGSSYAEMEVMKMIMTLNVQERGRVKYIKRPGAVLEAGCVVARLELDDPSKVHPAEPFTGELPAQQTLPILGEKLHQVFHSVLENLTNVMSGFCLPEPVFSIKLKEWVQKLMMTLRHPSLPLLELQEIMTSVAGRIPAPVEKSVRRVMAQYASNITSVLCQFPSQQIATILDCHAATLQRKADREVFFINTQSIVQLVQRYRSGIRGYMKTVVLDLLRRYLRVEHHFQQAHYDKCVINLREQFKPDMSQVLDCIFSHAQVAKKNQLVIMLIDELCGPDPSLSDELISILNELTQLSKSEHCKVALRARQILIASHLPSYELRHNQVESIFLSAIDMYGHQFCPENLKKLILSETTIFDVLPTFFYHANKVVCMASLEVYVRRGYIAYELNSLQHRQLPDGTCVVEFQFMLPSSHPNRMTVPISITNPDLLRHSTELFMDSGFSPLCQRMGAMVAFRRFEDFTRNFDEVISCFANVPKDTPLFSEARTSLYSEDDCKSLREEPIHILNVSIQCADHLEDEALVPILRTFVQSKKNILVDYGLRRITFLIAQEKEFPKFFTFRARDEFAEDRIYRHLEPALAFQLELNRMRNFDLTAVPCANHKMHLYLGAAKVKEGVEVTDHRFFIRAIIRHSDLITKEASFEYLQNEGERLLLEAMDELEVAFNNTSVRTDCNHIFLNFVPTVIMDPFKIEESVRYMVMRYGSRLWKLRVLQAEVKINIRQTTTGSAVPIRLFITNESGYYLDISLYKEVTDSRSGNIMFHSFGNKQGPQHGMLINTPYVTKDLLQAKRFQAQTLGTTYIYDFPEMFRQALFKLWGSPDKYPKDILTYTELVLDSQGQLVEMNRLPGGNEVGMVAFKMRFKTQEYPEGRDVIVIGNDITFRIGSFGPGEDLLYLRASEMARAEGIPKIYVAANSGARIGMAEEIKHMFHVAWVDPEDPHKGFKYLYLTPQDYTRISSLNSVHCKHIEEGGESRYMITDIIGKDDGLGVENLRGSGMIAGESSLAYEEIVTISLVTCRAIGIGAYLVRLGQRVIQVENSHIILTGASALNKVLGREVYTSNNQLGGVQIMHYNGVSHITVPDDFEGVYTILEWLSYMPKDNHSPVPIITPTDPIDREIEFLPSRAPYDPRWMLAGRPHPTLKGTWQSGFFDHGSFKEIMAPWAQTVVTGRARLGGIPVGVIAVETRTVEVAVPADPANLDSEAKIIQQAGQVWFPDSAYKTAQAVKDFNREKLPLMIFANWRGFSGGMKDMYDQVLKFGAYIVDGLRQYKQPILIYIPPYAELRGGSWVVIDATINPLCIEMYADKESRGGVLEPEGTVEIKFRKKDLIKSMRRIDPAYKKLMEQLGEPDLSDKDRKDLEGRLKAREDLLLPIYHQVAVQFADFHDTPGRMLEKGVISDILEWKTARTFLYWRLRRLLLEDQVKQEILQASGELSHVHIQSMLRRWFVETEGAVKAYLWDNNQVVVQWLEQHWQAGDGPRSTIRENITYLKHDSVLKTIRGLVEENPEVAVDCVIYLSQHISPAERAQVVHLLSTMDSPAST

Turning to `COc1ccc(F)cc1[C@H](Cn1c(=O)n([C@@H](C)C(=O)N(C)C(C)C)c(=O)c2c(C)c(-n3nccn3)sc21)OCC(C)(C)O` [Compound I-170], the pIC50 in experiment [1] (Table 2a) was 7.40 to 8.00; in experiment [1] (Table 2b, additional results) it was 7.40 to 8.00; in experiment [5] (Table 2a), 9.00 to 9.40; in experiment [5] (Table 2b, additional results) it was 9.00 to 9.52. The values for the MIC in experiment [2] (setting [6]), in experiment [3] (setting [7]) and in experiment [4] (setting [8]) were 0.25 to 1 µg/mL (≈ 0.405 to 1.62 µM), more than 4.01 µg/mL and 2.01 to 4 µg/mL (≈ 3.26 to 6.49 µM), respectively.
With `COc1ccc(F)cc1[C@H](Cn1c(=O)n([C@H](C)C(=O)NC(C)C)c(=O)c2c(C)c(-n3nccn3)sc21)OCC(C)(C)O` [Compound I-171], the pIC50 is 7.40 to 8.00 in experiment [1] (Table 2a); 7.40 to 8.00 in experiment [1] (Table 2b, additional results); 8.30 to 9.00 in experiment [5] (Table 2a); 8.30 to 9.00 in experiment [5] (Table 2b, additional results). The MIC in experiment [2] (setting [9]) fell in the range of 1.01 to 2 µg/mL (≈ 1.68 to 3.32 µM); in experiment [3] (setting [10]) it was 2.01 to 4 µg/mL (≈ 3.34 to 6.64 µM); in experiment [4] (setting [11]) it was 1.01 to 2 µg/mL (≈ 1.68 to 3.32 µM).
Consider `COc1ccc(F)cc1[C@H](Cn1c(=O)n([C@@H](C)C(=O)NC(C)C)c(=O)c2c(C)c(-n3nccn3)sc21)OCC(C)(C)O` [Compound I-172], for which the negative-log IC50 (pIC50) in experiment [1] (Table 2a) was 8.00 to 8.30; in experiment [1] (Table 2b, additional results), 8.00 to 8.30; in experiment [5] (Table 2a), 9.00 to 9.40; in experiment [5] (Table 2b, additional results), 9.00 to 9.52. Further, the MIC lay in the range of 1.01 to 2 µg/mL (≈ 1.68 to 3.32 µM) in experiment [2] (setting [9]), 2.01 to 4 µg/mL (≈ 3.34 to 6.64 µM) in experiment [3] (setting [10]) and 1.01 to 2 µg/mL (≈ 1.68 to 3.32 µM) in experiment [4] (setting [11]).
`COc1ccc(F)cc1[C@H](Cn1c(=O)n([C@H](C)C(N)=O)c(=O)c2c(C)c(-n3nccn3)sc21)OCC(C)(C)O` [Compound I-173]: the pIC50 in experiment [1] (Table 2a) is 7.40 to 8.00; in experiment [1] (Table 2b, additional results), 7.40 to 8.00; in experiment [5] (Table 2a), 8.30 to 9.00; in experiment [5] (Table 2b, additional results), 8.30 to 9.00. For the same molecule, the MIC was 0.25 to 1 µg/mL (≈ 0.446 to 1.78 µM) in experiment [2] (setting [6]), more than 4.01 µg/mL in experiment [3] (setting [7]) and 2.01 to 4 µg/mL (≈ 3.59 to 7.14 µM) in experiment [4] (setting [8]).
On to `COc1ccc(F)cc1[C@H](Cn1c(=O)n([C@@H](C)C(N)=O)c(=O)c2c(C)c(-n3nccn3)sc21)OCC(C)(C)O` [Compound I-174], for which the pIC50 in experiment [1] (Table 2a) is 8.00 to 8.30; in experiment [1] (Table 2b, additional results), 8.00 to 8.30; in experiment [5] (Table 2a), 9.00 to 9.40; in experiment [5] (Table 2b, additional results), 9.00 to 9.52. In addition, the results for the MIC in experiment [2] (setting [6]), in experiment [3] (setting [7]) and in experiment [4] (setting [8]) were 0.25 to 1 µg/mL (≈ 0.446 to 1.78 µM), more than 4.01 µg/mL and 2.01 to 4 µg/mL (≈ 3.59 to 7.14 µM), respectively.
With `COc1ccc(F)cc1[C@H](Cn1c(=O)n([C@H](C)C(=O)N2CCCC2)c(=O)c2c(C)c(-n3nccn3)sc21)OCC(C)(C)O` [Compound I-175], the pIC50 in experiment [1] (Table 2a) is 8.00 to 8.30; in experiment [1] (Table 2b, additional results), 8.00 to 8.30; in experiment [5] (Table 2a), 9.00 to 9.40; in experiment [5] (Table 2b, additional results), 9.00 to 9.52. Further, the MIC in experiment [2] (setting [6]) lay in the range of 0.25 to 1 µg/mL (≈ 0.407 to 1.63 µM); in experiment [3] (setting [7]) it was 2.01 to 4 µg/mL (≈ 3.27 to 6.51 µM); in experiment [4] (setting [8]), 1.01 to 2 µg/mL (≈ 1.64 to 3.25 µM).
Consider `COc1ccc(F)cc1[C@H](Cn1c(=O)n([C@@H](C)C(=O)N2CCCC2)c(=O)c2c(C)c(-n3nccn3)sc21)OCC(C)(C)O` [Compound I-176], for which the pIC50 in experiment [1] (Table 2a) is 7.40 to 8.00; in experiment [1] (Table 2b, additional results) it was 7.40 to 8.00; in experiment [5] (Table 2a), 8.30 to 9.00; in experiment [5] (Table 2b, additional results), 8.30 to 9.00. Also, the figures for the MIC in experiment [2] (setting [6]), in experiment [3] (setting [7]) and in experiment [4] (setting [8]) were 0.25 to 1 µg/mL (≈ 0.407 to 1.63 µM), 2.01 to 4 µg/mL (≈ 3.27 to 6.51 µM) and 1.01 to 2 µg/mL (≈ 1.64 to 3.25 µM), respectively.
As to `COc1ccccc1[C@@H](O)Cn1c(=O)n([C@@H](C)C(=O)N(C)C(C)C)c(=O)c2c(C)c(-n3nccn3)sc21` [Compound I-200], the pIC50 in experiment [1] (Table 2b, additional results) was 7.40 to 8.00; in experiment [5] (Table 2b, additional results), 8.30 to 9.00. The MIC in experiment [2] (setting [6]), in experiment [3] (setting [7]) and in experiment [4] (setting [8]) was 2.01 to 4 µg/mL (≈ 3.82 to 7.6 µM) in each case.
`COc1ccccc1[C@@H](O)Cn1c(=O)n([C@@H](C)C(=O)NC(C)C)c(=O)c2c(C)c(-n3nccn3)sc21` [Compound I-201]: the pIC50 in experiment [1] (Table 2b, additional results) is 7.40 to 8.00; in experiment [5] (Table 2b, additional results), 9.00 to 9.52. The MIC lay in the range of 2.01 to 4 µg/mL (≈ 3.92 to 7.8 µM) in experiment [2] (setting [9]), 2.01 to 4 µg/mL (≈ 3.92 to 7.8 µM) in experiment [3] (setting [10]) and 1.01 to 2 µg/mL (≈ 1.97 to 3.9 µM) in experiment [4] (setting [11]).
As to `CCc1ccc(F)cc1[C@@H](O)Cn1c(=O)n(C(C)(C)C(N)=O)c(=O)c2c(C)c(-n3nccn3)sc21` [Compound I-202], the pIC50 in experiment [1] (Table 2b, additional results) is 7.40 to 8.00; in experiment [5] (Table 2b, additional results), 8.30 to 9.00. Further, the MIC in experiment [2] (setting [6]), in experiment [3] (setting [7]) and in experiment [4] (setting [8]) was more than 4.01 µg/mL in each case.

The pIC50 is the negative decadic logarithm of the IC50, by convention in mol/L. As a reminder, the MIC is the least concentration at which growth counts as inhibited.
